From ChEMBL document CHEMBL1147766, “Structure-based design of novel groups for use in the P1 position of thrombin inhibitor scaffolds. Part 1: Weakly basic azoles” (Bioorg Med Chem Lett, 2006)

Columns and labels:
Prothrombin [1] = biological target: T1, Prothrombin (Homo sapiens, UniProt P00734); assay: Binding affinity to thrombin
Trypsin = Trypsin (Homo sapiens, UniProt P07477+P07478+P35030); assay: Binding affinity to trypsin; type: protein assay
Prothrombin [2] = biological target: T1, Prothrombin; conditions: Plasma
Description: Anticoagulant potency in human plasma

[3] = Cmax in dog administered with 5 mg/kg, po; type: ADME, organism-based, Canis lupus familiaris; design: dose 5 mg/kg, route oral; conditions: in vivo
[4] = Cmax in dog administered with 4 mg/kg, po; type: ADME, organism-based, Canis lupus familiaris; design: dose 4 mg/kg, route oral; conditions: in vivo
[5] = Half life in dog administered with 4 mg/kg, po; type: ADME, organism-based, Canis lupus familiaris; design: dose 4 mg/kg, route oral; conditions: in vivo

## Cc1[nH]cnc1CNC(=O)[C@@H]1CCCN1C(=O)[C@H](N)C(c1ccccc1)c1ccccc1
Prothrombin [1]
  Ki: 0.065 µM
Trypsin
  Ki: 9.6 µM

## Cc1[nH]cnc1/C=C/CNC(=O)[C@@H]1CCCN1C(=O)[C@H](N)C(c1ccccc1)c1ccccc1
Prothrombin [2]
  2aPTT: 0.32 µM
Prothrombin [1]
  Ki: 0.001 µM
Trypsin
  Ki: 0.1 µM
[3]
  Cmax: 550 nM

## N[C@@H](C(=O)N1CCC[C@H]1C(=O)NCCCc1c[nH]cn1)C(c1ccccc1)c1ccccc1
Prothrombin [1]
  Ki: 0.017 µM
Trypsin
  Ki: 0.24 µM

## Cc1ccc(NS(=O)(=O)Cc2ccccc2)c(=O)n1CC(=O)NCCCc1c[nH]cn1
Prothrombin [1]
  Ki: 0.034 µM
Trypsin
  Ki: 17 µM

## Cc1nc[nH]c1CNC(=O)Cn1c(C)ccc(NS(=O)(=O)Cc2ccccc2)c1=O
Prothrombin [1]
  Ki: 0.008 µM
Trypsin
  Ki: 43 µM

## Cc1ccc(NS(=O)(=O)Cc2ccccc2)c(=O)n1CC(=O)NCc1cnc(N)s1
Trypsin
  Ki: > 1000 µM

## Nc1ncc(CCCNC(=O)[C@@H]2CCCN2C(=O)[C@H](N)C(c2ccccc2)c2ccccc2)s1
Prothrombin [1]
  Ki: 0.198 µM
Trypsin
  Ki: 32 µM

## N[C@@H](C(=O)N1CCC[C@H]1C(=O)NC/C=C/c1c[nH]cn1)C(c1ccccc1)c1ccccc1
Prothrombin [1]
  Ki: 0.002 µM
Trypsin
  Ki: 0.14 µM

## Nc1ncc(/C=C/CNC(=O)[C@@H]2CCCN2C(=O)[C@H](N)C(c2ccccc2)c2ccccc2)s1
Prothrombin [1]
  Ki: 0.03 µM
Trypsin
  Ki: 178 µM

## Nc1ncc(CNC(=O)[C@@H]2CCCN2C(=O)[C@H](N)C(c2ccccc2)c2ccccc2)s1
Prothrombin [1]
  Ki: 0.35 µM
Trypsin
  Ki: 59 µM

## N[C@@H](C(=O)N1CCC[C@H]1C(=O)NCCc1c[nH]cn1)C(c1ccccc1)c1ccccc1
Prothrombin [1]
  Ki: 0.2 µM
Trypsin
  Ki: 2.3 µM

## Cc1nc(N)sc1CNC(=O)Cn1c(C)ccc(NS(=O)(=O)Cc2ccccc2)c1=O
Prothrombin [1]
  Ki: 0.01 µM
Trypsin
  Ki: 6.5 µM

## Cc1nc[nH]c1CNC(=O)Cn1c(C)cnc(NCCc2ccccn2)c1=O
Prothrombin [1]
  Ki: 0.022 µM

## Nc1ncc(CCNC(=O)[C@@H]2CCCN2C(=O)[C@H](N)C(c2ccccc2)c2ccccc2)s1
Prothrombin [1]
  Ki: 0.193 µM
Trypsin
  Ki: 59 µM

## Cc1cnc(NCCc2ccccc2)c(=O)n1CC(=O)NC[C@H]1CC[C@H](N)CC1
Prothrombin [1]
  Ki: 0.0064 µM

## N[C@@H](C(=O)N1CCC[C@H]1C(=O)NCc1c[nH]cn1)C(c1ccccc1)c1ccccc1
Prothrombin [1]
  Ki: 0.38 µM
Trypsin
  Ki: 36 µM

## Cc1nc[nH]c1CNC(=O)Cn1c(C)cnc(NCCc2ccccc2)c1=O
Prothrombin [1]
  Ki: 0.053 µM
[4]
  Cmax: 1400 nM
[5]
  half-life: 2 h

## Cc1ccc(NS(=O)(=O)Cc2ccccc2)c(=O)n1CC(=O)NC/C=C/c1c[nH]cn1
Prothrombin [1]
  Ki: 0.143 µM
Trypsin
  Ki: 21 µM

## Cc1ccc(NS(=O)(=O)Cc2ccccc2)c(=O)n1CC(=O)NC/C=C/c1cnc(N)s1
Prothrombin [1]
  Ki: 1.8 µM
Trypsin
  Ki: > 1000 µM

## Cc1ccc(NS(=O)(=O)Cc2ccccc2)c(=O)n1CC(=O)NCCCc1cnc(N)s1
Prothrombin [1]
  Ki: 0.45 µM
Trypsin
  Ki: 124 µM

## N[C@@H](C(=O)N1CCC[C@H]1C(=O)NCC#Cc1c[nH]cn1)C(c1ccccc1)c1ccccc1
Prothrombin [1]
  Ki: 0.013 µM
Trypsin
  Ki: 6 µM

## Cc1ccc(NS(=O)(=O)Cc2ccccc2)c(=O)n1CC(=O)NCc1c[nH]cn1
Prothrombin [1]
  Ki: 0.17 µM
Trypsin
  Ki: 314 µM

## Cc1[nH]cnc1C#CCNC(=O)[C@@H]1CCCN1C(=O)[C@H](N)C(c1ccccc1)c1ccccc1
Prothrombin [1]
  Ki: 0.006 µM
Trypsin
  Ki: 7.2 µM
